Source: US6750228B1, “Aromatic sulfone hydroxamic acid metalloprotease inhibitor” (priority 1997, dated 2004)
Where two headings read alike, the source gives them in different places.

What was measured:
MMP-13 = molecular target: T1, MMP-13 (Homo sapiens, UniProt P45452); test: biochemical; conditions: read-out: MMP-13 IC50
T1 construct: made in house; host or cells: baculovirus / insect cells
Protocol: (§1) The compounds prepared in the manner described in the Examples above were assayed for activity by an in vitro assay. […] Briefly, 4-aminophenylmercuric acetate (APMA) or trypsin-activated MMPs were incubated with various concentrations of the inhibitor compound at room temperature for 5 minutes.
(§2) The expressed enzyme was purified first over a heparin agarose column and then over a chelating zinc chloride column. The proenzyme was activated by APMA for use in the assay.
(§3) MMP-1 expressed in transfected HT-1080 cells was provided by Dr. Harold Welgus of Washington University, St. Louis, Mo. The enzyme was also activated using APMA and was then purified over a hydroxamic acid column. Dr. Welgus also provided transfected HT-1080 cells that expressed MMP-9. Transfected cells that expressed MMP-2 were provided by Dr. Gregory Goldberg, also of Washington University. Studies with MMP-7 were carried out at pH 7.5 in the presence of 0.02% 2-mercaptoethanol using conditions otherwise similar to those used for the other enzymes. The enzyme was obtaind from a hMMP-7-expressing E. coli clone that was a gift of Dr. Steven Shapiro of Washington University, St. Louis, Mo. Further specifics for preparation and use of these enzymes can be found in the scientific literature describing these enzymes. See, for example, Enzyme Nomenclature, Academic Press, San Diego, Calif. […] The enzyme substrate is a methoxycoumarin-containing polypeptide having the following sequence:
(§4) MCA-ProLeuGlyLeuDpaAlaArgNH2, wherein MCA is methoxycoumarin and Dpa is 3-(2,4-dinitrophenyl)-L-2,3-diaminopropionyl alanine.
(§5) The buffer used for assays contained 100 mM Tris-HCl, 100 mM NaCl, 10 mM CaCl2 and 0.05 percent polyethyleneglycol (23) lauryl ether at a pH value of 7.5. Assays were carried out at room temperature, and dimethyl sulfoxide (DMSO) at a final concentration of 1 percent was used to dissolve inhibitor compound.
(§6) The assayed inhibitor compound in DMSO/buffer solution was compared to an equal amount of DMSO/buffer with no inhibitor as control using Microfluor White Plates (Dynatech). The inhibitor or control solution was maintained in the plate for 10 minutes and the substrate was added to provide a final concentration of 4 μM.
(§7) Inhibition was measured as a reduction in fluorescent intensity as a function of inhibitor concentration, using a Perkin Elmer L550 plate reader. The IC50 values were calculated from those values. The results are set forth in the Inhibition Table A, below, reported in terms of IC50 to three significant figures, where appropriate.

MMP-2 = molecular target: T2, MMP-2 (Homo sapiens, UniProt P08253); test: biochemical
T2 construct: made in house; provided by Dr. Gregory Goldberg, Washington University
T2 sequence (P08253 110-660): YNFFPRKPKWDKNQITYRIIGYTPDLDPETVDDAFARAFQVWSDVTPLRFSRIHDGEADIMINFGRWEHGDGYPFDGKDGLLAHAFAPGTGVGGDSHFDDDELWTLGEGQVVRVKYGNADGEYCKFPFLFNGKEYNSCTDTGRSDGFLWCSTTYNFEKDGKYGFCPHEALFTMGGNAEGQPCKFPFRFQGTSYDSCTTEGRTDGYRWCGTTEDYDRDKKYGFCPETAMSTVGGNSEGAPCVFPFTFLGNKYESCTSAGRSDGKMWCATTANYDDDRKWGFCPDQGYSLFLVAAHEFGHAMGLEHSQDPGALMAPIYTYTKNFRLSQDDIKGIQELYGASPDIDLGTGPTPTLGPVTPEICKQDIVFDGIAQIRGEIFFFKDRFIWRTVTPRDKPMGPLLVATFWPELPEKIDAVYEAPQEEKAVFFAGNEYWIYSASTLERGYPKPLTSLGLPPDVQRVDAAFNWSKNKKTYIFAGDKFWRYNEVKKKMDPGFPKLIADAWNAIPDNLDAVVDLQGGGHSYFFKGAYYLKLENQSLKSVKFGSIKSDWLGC
Protocol: as §1, §2, §3, §4, §5, §6, §7

[1] = recombinant human MMP-13, MCA peptide substrate 4 μM, pH 7.5, room temperature
[2] = recombinant human MMP-2, MCA peptide substrate 4 μM, pH 7.5, room temperature, read-out: MMP-2 IC50

SMILES	IC50 (MMP-13) [nM]	IC50 (MMP-2; read-out: MMP-2 IC50) [nM]	IC50 (MMP-13; [1]) [nM]	IC50 (MMP-2; [2]) [nM]	IC50 (MMP-2; MMP-2 IC50 (nM)) [nM]
O=C(C1CCN(c2ccc(S(=O)(=O)C3(C(=O)NO)CCOCC3)cc2)CC1)N1CCN(c2ccc(C(F)(F)F)cc2)CC1 [Example 38]	67.4	6000	–	–	–
CCCCS(=O)(=O)N1CC(Oc2ccc(S(=O)(=O)C3(C(=O)NO)CCOCC3)cc2)C1 [Example 851]	–	–	3.7	42.5	–
Cc1ccc(S(=O)(=O)N(C)C2CCN(c3ccc(S(=O)(=O)C4(C(=O)NO)CCOCC4)cc3)CC2)cc1 [Example 834]	–	–	150	780	–
Cc1ccc(C2CCN(c3ccc(S(=O)(=O)C4(C(=O)NO)CCOCC4)cc3)CC2)cc1C [Example 869]	–	–	2	76.9	–
O=C(c1ccc(Cl)cc1)C1CCN(c2ccc(S(=O)(=O)C3(C(=O)NO)CCOCC3)cc2)CC1 [Example 857]	–	–	1.3	120	–
COc1ccc(N2CCN(c3ccc(S(=O)(=O)C4(C(=O)NO)CCN(C5CC5)CC4)cc3)CC2)cc1 [Example 368]	–	–	–	7	–
C=CCN(CC=C)C(=O)C1CCN(c2ccc(S(=O)(=O)C3(C(=O)NO)CCOCC3)cc2)CC1 [Example 48]	–	–	27	3200	–
O=C(NO)C1(S(=O)(=O)c2ccc(N3CCC(OCc4cccc(C(F)(F)F)c4)CC3)cc2)CCOCC1 [Example 177]	–	–	8.8	520	–
O=C(NO)C1(S(=O)(=O)c2ccc(N3CCN(c4ccc(C(F)(F)F)cc4)CC3)cc2)CCN(C2CC2)CC1 [Example 356]	–	–	2.4	32.6	–
COc1cc(C(=O)C2CCN(c3ccc(S(=O)(=O)C4(C(=O)NO)CCOCC4)cc3)CC2)ccc1Cl [Example 859]	–	–	5.5	440	–
O=C(NO)C1(S(=O)(=O)c2ccc(Oc3ccc(C(F)(F)F)cc3)cc2)CCN(C2CC2)CC1 [Example 269]	–	–	–	–	< 0.1
Cc1ccc(C(O)C2CCN(c3ccc(S(=O)(=O)C4(C(=O)NO)CCOCC4)cc3)CC2)cc1C (centres unmarked) [Example 826]	–	–	40	650	–
CC(C)(C)c1ccc(CC2CCN(c3ccc(S(=O)(=O)C4(C(=O)NO)CCOCC4)cc3)CC2)cc1 [Example 841]	–	–	285	1900	–
CCc1ccc(C(=O)C2CCN(c3ccc(S(=O)(=O)C4(C(=O)NO)CCN(C5CC5)CC4)cc3)CC2)cc1 [Example 371]	–	–	11.1	400	–
C=C(C)c1ccc(N2CCN(c3ccc(S(=O)(=O)C4(C(=O)NO)CCN(C5CC5)CC4)cc3)CC2)cc1 [Example 360]	–	–	10	5.6	–
COc1cccc(S(=O)(=O)N2CC(Oc3ccc(S(=O)(=O)C4(C(=O)NO)CCOCC4)cc3)C2)c1 [Example 829]	–	–	6	22	–
COc1ccccc1N1CCN(c2ccc(S(=O)(=O)C3(C(=O)NO)CCOCC3)cc2)CC1 [Example 85]	–	–	130	370	–
CN(C)c1ccc(S(=O)(=O)C2CCN(c3ccc(S(=O)(=O)C4(C(=O)NO)CCOCC4)cc3)CC2)cc1 [Example 836]	–	–	135	4200	–
O=C(NO)C1(S(=O)(=O)c2ccc(N3CCC(SCc4ccc(C(F)(F)F)cc4)CC3)cc2)CCN(C2CC2)CC1 [Example 394]	–	–	0.5	8	–
CCOc1ccc(C(=O)C2CCN(c3ccc(S(=O)(=O)C4(C(=O)NO)CCN(C5CC5)CC4)cc3)CC2)cc1 [Example 376]	–	–	5.5	230	–
O=C(Cc1ccc(Cl)cc1)C1CCN(c2ccc(S(=O)(=O)C3(C(=O)NO)CCOCC3)cc2)CC1 [Example 861]	–	–	2	34.9	–

SMILES	IC50 (MMP-13) [nM]	IC50 (MMP-2; read-out: MMP-2 IC50) [nM]	IC50 (MMP-13; [1]) [nM]	IC50 (MMP-2; [2]) [nM]	IC50 (MMP-2; MMP-2 IC50 (nM)) [nM]
O=C(NO)C1(S(=O)(=O)c2ccc(N3CCC(Sc4nc5ccccc5o4)CC3)cc2)CCN(C2CC2)CC1 [Example 382]	–	–	11.4	260	–
CC(=O)c1ccccc1S(=O)(=O)N1CC(Oc2ccc(S(=O)(=O)C3(C(=O)NO)CCOCC3)cc2)C1 [Example 854]	–	–	40	3300	–
Cc1ccc(C(=O)C2CCN(c3ccc(S(=O)(=O)C4(C(=O)NO)CCN(C5CC5)CC4)cc3)CC2)cc1 [Example 373]	–	–	3	80	–
O=C(NO)C1(S(=O)(=O)c2ccc(Oc3ccc(C(F)(F)F)cc3)cc2)CCN(C2CC2)CC1 [Example 270]	–	–	–	–	1
O=C(NO)C1(S(=O)(=O)c2ccc(Oc3ccc(C(F)(F)F)cc3)cc2)CCN(C2CC2)CC1 [Example 271]	–	–	–	–	0.17
CNC(=S)N1CCC(C(=O)NO)(S(=O)(=O)c2ccc(Oc3ccc(OC(F)(F)F)cc3)cc2)CC1 [Example 198, N-hydroxy-4[[4-(4-trifluoromethoxyphenoxy)-]sulfonyl]-1-(N-methylthiourea)-4-piperidinecarboxamide]	–	–	0.375	0.25	–
CC1CC(C)CN(C(=O)C2CCN(c3ccc(S(=O)(=O)C4(C(=O)NO)CCOCC4)cc3)CC2)C1 (centres unmarked) [Example 55]	–	–	10	> 10000	–
CN(C)S(=O)(=O)N1CC(Oc2ccc(S(=O)(=O)C3(C(=O)NO)CCOCC3)cc2)C1 [Example 853]	–	–	15.8	120	–
COCCN1CCC(C(N)=O)(S(=O)(=O)c2ccc(Oc3ccc(OC(F)(F)F)cc3)cc2)CC1 [Example 1]	–	–	22.7	8.5	–
O=C(NO)C1(S(=O)(=O)c2ccc(N3CCC(c4nc(-c5cccc(C(F)(F)F)c5)no4)CC3)cc2)CCN(C2CC2)CC1 [Example 388]	–	–	50	430	–
O=C(NO)C1(S(=O)(=O)c2ccc(C3=CCC(c4ccccc4)CC3)cc2)CCOCC1 (centres unmarked) [Example 828]	–	–	1.5	12.8	–
CS(=O)(=O)c1ccccc1S(=O)(=O)N1CC(Oc2ccc(S(=O)(=O)C3(C(=O)NO)CCOCC3)cc2)C1 [Example 845]	–	–	28.6	2000	–
O=C(NO)C1(S(=O)(=O)c2ccc(N3CCN(c4ccccc4)CC3)cc2)CCN(C2CC2)CC1 [Example 369]	–	–	3.3	5.4	–
O=CN1CCC(C(=O)NO)(S(=O)(=O)c2ccc(Oc3ccc(OC(F)(F)F)cc3)cc2)CC1 [Example 452]	–	–	< 0.1	< 0.1	–
CN(C)c1cccc2c(S(=O)(=O)N3CC(Oc4ccc(S(=O)(=O)C5(C(=O)NO)CCOCC5)cc4)C3)cccc12 [Example 852]	–	–	25	3000	–
C#CCN1CCC(C(N)=O)(S(=O)(=O)c2ccc(Sc3ccccc3)cc2)CC1 [Example 2]	–	–	5500	6000	–
O=C(NO)C1(S(=O)(=O)c2ccc(N3CCN(c4ccc(Cl)cc4)CC3)cc2)CCN(C2CC2)CC1 [Example 354]	–	–	1.6	15.4	–
O=C(NO)C1(S(=O)(=O)c2ccc(N3CCN(CCO)CC3)cc2)CCOCC1 [Example 623]	–	–	350	1400	–
CSc1ccc(C(=O)C2CCN(c3ccc(S(=O)(=O)C4(C(=O)NO)CCOCC4)cc3)CC2)cc1 [Example 856]	–	–	1.2	250	–
COc1ccc(CC(=O)C2CCN(c3ccc(S(=O)(=O)C4(C(=O)NO)CCOCC4)cc3)CC2)cc1 [Example 862]	–	–	1.7	40	–
C[C@H](OC1CCN(c2ccc(S(=O)(=O)C3(C(=O)NO)CCN(C4CC4)CC3)cc2)CC1)c1ccccc1 [Example 400]	–	–	23.5	520	–
